Experimental data as given in patent publication US11278530B2, “Polycyclic amides as muscarinic M1 receptor positive allosteric modulators” (SUVEN LIFE SCIENCES LIMITED, priority 2017, dated 2022).

What was measured:
[1] = target: T1, recombinant human Muscarinic M1 receptor (Homo sapiens, UniProt P11229); test: Allosteric potency EC50 for Muscarinic M1 receptor, CHO pCRE-Luc reporter cell-based assay with EC20 of acetylcholine; details: CHO cells, human M1, luciferase reporter, in presence of EC20 of acetylcholine, 4 h
T1 sequence (P11229 1-460): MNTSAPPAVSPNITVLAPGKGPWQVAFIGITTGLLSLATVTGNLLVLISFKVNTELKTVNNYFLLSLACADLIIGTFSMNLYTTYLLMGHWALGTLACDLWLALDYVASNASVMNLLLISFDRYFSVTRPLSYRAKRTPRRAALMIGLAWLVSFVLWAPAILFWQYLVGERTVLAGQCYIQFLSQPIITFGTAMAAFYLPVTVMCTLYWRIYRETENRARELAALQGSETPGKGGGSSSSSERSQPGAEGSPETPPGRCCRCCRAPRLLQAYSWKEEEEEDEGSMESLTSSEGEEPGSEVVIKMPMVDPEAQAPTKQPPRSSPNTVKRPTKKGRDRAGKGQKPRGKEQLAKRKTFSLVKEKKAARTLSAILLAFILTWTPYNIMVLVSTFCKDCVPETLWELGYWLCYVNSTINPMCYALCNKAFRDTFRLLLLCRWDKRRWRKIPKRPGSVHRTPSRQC
Description: Determination of allosteric potency EC50 values for Muscarinic M1 receptor:
A stable CHO cell line expressing recombinant human Muscarinic M1 receptor and pCRE-Luc reporter system was used for cell-based assay. The assay offers a non-radioactive based approach to determine binding of a compound to GPCRs. In this specific assay, the level of intracellular cyclic AMP which is modulated by activation or inhibition of the receptor is measured. The recombinant cells harbor luciferase reporter gene under the control of cAMP response element.
The above cells were grown in 96 well clear bottom white plates in Hams F12 medium containing 10% fetal bovine serum (FBS). Prior to the addition of compounds or standard agonist, cells were serum starved overnight. Increasing concentrations of test compounds were added along with EC20 of acetylcholine in OptiMEM medium to the cells. The incubation was continued at 37° C. in CO2 incubator for 4 h. Medium was removed and cells were washed with phosphate buffered saline. The cells were lysed and luciferase activity was measured in a Luminometer. Luminescence counts in each concentrations of test item were normalized to the acetylcholine induced maximum response and the data was analyzed using Graphpad software. EC50 values of the compounds were defined as the concentration required in stimulating the luciferase activity by 50% in presence of EC20 of acetylcholine.

[2] = Rodent brain penetration study; type: in vivo, Male Wistar rats; details: male, Wistar, brain and plasma, po; rat, 3 mg/kg, p.o. @ 1.0 hr, brain-plasma ratio; read-out: Single dose Rat Brain Penetration (Cb/Cp)
Description: Rodent Brain Penetration Study
Male Wistar rats (260±40 grams) were used as experimental animals. Three animals were housed in each cage. Animals were given water and food ad libitum throughout the experiment and maintained on a 12 h light/dark cycle.
Brain penetration was determined in discrete manner in rats. One day prior to dosing day, male Wistar rats were acclimatized and randomly grouped according to their weight. At each time point (0.5, 1 and 2 h) n=3 animals were used.
The test compounds were suitably preformulated and administered orally at (free base equivalent) 3 mg/kg. Blood samples were removed via cardiac puncture by using isoflurane anesthesia. The animals were sacrificed to collect brain tissue. Plasma was separated and brain samples were homogenized and stored frozen at −20° C. until analysis. The concentrations of the test compounds in plasma and brain were determined using LC-MS/MS method.
The test compounds were quantified in plasma and brain homogenate by qualified LC-MS/MS method using suitable extraction technique. The test compounds were quantified in the calibration range of 1-500 ng/mL in plasma and brain homogenate. Study samples were analyzed using calibration samples in the batch and quality control samples spread across the batch.

[3] = Rodent pharmacokinetic study; type: in vivo, Male Wistar rats; details: male, Wistar, rat, plasma; for bioavailability: oral 3 mg/kg vs i.v. 1 mg/kg, read-out: F (bioavailability)
Description: Rodent Pharmacokinetic Study
Male Wistar rats (260±50 grams) were used as experimental animals. Animals were housed individually in polypropylene cage. Two days prior to study, male Wistar rats were anesthetized with isoflurane for surgical placement of jugular vein catheter. Rats were randomly divided for oral (3 mg/kg) and intravenous (i.v) (1 mg/kg) dosing (n=3/group) and fasted overnight before oral dosing (p.o.). However, rats allocated to intravenous (i.v.) dosing food and water was provided ad libitum.
At pre-determined point, blood was collected through jugular vein and replenished with an equivalent volume of normal saline. Collected blood was transferred into a labelled eppendorf tube containing 10 μL of heparin as an anticoagulant. Typically blood samples were collected at following time points: 0.08, 0.25, 0.5, 1, 2, 4, 6, 8, and 24 h post dose. Blood was centrifuged at 4000 rpm for 10 minutes. Plasma was separated and stored frozen at −80° C. until analysis. The concentrations of the test compounds were quantified in plasma by qualified LC-MS/MS method using suitable extraction technique. The test compounds were quantified in the calibration range around 1-1000 ng/mL in plasma. Study samples were analyzed using calibration samples in the batch and quality control samples spread across the batch.
Pharmacokinetic parameters Cmax, Tmax (h), AUCt, T1/2, clearance and bioavailability (F) were calculated by non-compartmental model using standard non-compartmental model by using Phoenix WinNonlin 6.0.2 or 6.0.3 version Software package.

Row | EC50 [1] [nM] | Kp at 1 h [2] | AUC(0-t) ([3]; iv, i.v. 1 mg/kg) [ng·h/mL] | half-life ([3]; iv, i.v. 1 mg/kg) [h] | clearance ([3]; iv, i.v. 1 mg/kg) [mL/min/kg] | bioavailability [3] [%] | AUC(0-t) ([3]; oral 3 mg/kg) [ng·h/mL] | Cmax ([3]; oral 3 mg/kg) [ng/mL] | Tmax ([3]; oral 3 mg/kg) [h] | half-life ([3]; oral 3 mg/kg) [h] | SMILES
1 | 1120 | 0.32 ± 0.06 | 635 ± 70 | 1.3 ± 0.2 | 26 ± 3 | 37 ± 6 | 705 ± 118 | 288 ± 26.5 | 1 | 1.3 ± 0.1 | Cc1c(Cc2ccc(-n3cccn3)cc2)cc(C(=O)N[C@H]2CCCC[C@@H]2O)c2c1NCCO2 [Example 17, N-(cis-1S,2S-2-Hydroxycyclohexyl)-6-(4-pyrazol-1-yl-benzyl)-5-methyl-3,4-dihydro-2H-benzo[1,4]oxazine-8-carboxamide]
2 | 719 | 0.54 ± 0.04 | 492 ± 22 | 1.3 ± 0.5 | 34 ± 1.5 | 24 ± 8 | 360 ± 117 | 150 ± 39 | 0.5 to 1 | 1.1 ± 0.1 | Cc1c(Cc2ccnc(Cl)c2)cc(C(=O)N[C@H]2CCCC[C@@H]2O)c2ncccc12 [Example 1, N-(cis-1S,2S-2-Hydroxycyclohexyl)-6-(2-chloropyridin-4-ylmethyl)-5-methylquinoline-8-carboxamide]
3 | 1670 | 0.26 ± 0.04 | 664 ± 81 | 1.5 ± 0.6 | 25 ± 3.3 | 50 ± 2 | 1000 ± 38 | 582 ± 72 | 0.5 | 1.3 ± 0.2 | Cc1c(Cc2ccc(Cl)nc2)cc(C(=O)N[C@H]2CCCC[C@@H]2O)c2ncccc12 [Example 6, N-(cis-1S,2S-2-Hydroxycyclohexyl)-6-(2-chloropyridin-5-ylmethyl)-5-methylquinoline-8-carboxamide]
4 | 168 |  | 6150 ± 485 | 3.3 ± 0.7 | 2.7 ± 0.2 | 100 ± 16 | 18400 | 2330 ± 441 | 2 | 3.6 ± 0.2 | Cc1c(Cc2ccc(-c3cnn(C)c3)c(F)c2F)cc(C(=O)N[C@H]2CCCC[C@@H]2O)c2ncccc12 [Example 8, N-(cis-1S,2S-2-Hydroxycyclohexyl)-6-[2,3-difluoro-4-(1-methyl-1H-pyrazol-4-yl)-benzyl]-5-methylquinoline-8-carboxamide]
5 | 1680 | 1.74 ± 0.03 | 367 ± 39 | 1.6 ± 0.3 | 45 ± 5 | 14 ± 5 | 158 ± 58 | 48 ± 23 | 0.5 to 2 | 2 ± 0.2 | Cc1c(Cc2cccc(F)c2F)cc(C(=O)N[C@H]2CCCC[C@@H]2O)c2ncccc12 [Example 2, N-(cis-1S,2S-2-Hydroxycyclohexyl)-6-(2,3-difluorobenzyl)-5-methylquinoline-8-carboxamide]
6 | 185 |  |  |  |  |  |  |  |  |  | Cc1c(Cc2ccc(-c3cnn(C)c3)c(F)c2)cc(C(=O)N[C@H]2CCCC[C@@H]2O)c2ncccc12 [Example 9, N-(cis-1S,2S-2-Hydroxycyclohexyl)-6-[3-fluoro-4-(1-methyl-1H-pyrazol-4-yl)-benzyl]-5-methylquinoline-8-carboxamide]
7 | 960 |  |  |  |  |  |  |  |  |  | Cc1c(Cc2ccnc(F)c2)cc(C(=O)N[C@H]2CCCC[C@@H]2O)c2ncccc12 [Example 4, N-(cis-1S,2S-2-Hydroxycyclohexyl)-6-(2-fluoropyridin-4-ylmethyl)-5-methylquinoline-8-carboxamide]
8 | 258 |  |  |  |  |  |  |  |  |  | Cc1c(Cc2ccc(-c3cscn3)cc2)cc(C(=O)N[C@H]2CCCC[C@@H]2O)c2ncccc12 [Example 12, N-(cis-1S,2S-2-Hydroxycyclohexyl)-6-(4-thiazol-4-yl-benzyl)-5-methylquinoline-8-carboxamide]
9 | 1460 |  |  |  |  |  |  |  |  |  | Cc1c(Cc2ccc(-c3cnn(C)c3)c(F)c2F)cc(C(=O)N[C@@H]2CCCC[C@H]2O)c2c1ncn2C [Example 43, N-(cis-1S,2S-2-Hydroxycyclohexyl)-3,7-dimethyl-6-[2,3-difluoro-4-(1-methyl-1H-pyrazol-4-yl)-benzyl]-3H-benzimidazole-4-carboxamide]
10 | 1050 |  |  |  |  |  |  |  |  |  | Cn1cc(-c2ccc(Cc3cc(C(=O)N[C@H]4CCCC[C@@H]4O)c4nccn4c3)c(F)c2F)cn1 [Example 21, N-(cis-1S,2S-2-Hydroxycyclohexyl)-6-[2,3-difluoro-4-(1-methyl-1H-pyrazol-4-yl)-benzyl]-imidazo[1,2-a]pyridine-8-carboxamide]
11 | 2820 |  |  |  |  |  |  |  |  |  | Cc1c(Cc2cccnc2Cl)cc(C(=O)N[C@@H]2CCCC[C@H]2O)c2nc[nH]c12 [Example 31, N-(cis-1S,2S-2-Hydroxycyclohexyl)-7-methyl-6-[2-chloropyridin-3-ylmethyl]-1H-benzimidazole-4-carboxamide]
12 | 465 |  |  |  |  |  |  |  |  |  | Cc1c(Cc2ccc(-c3cnn(C)c3)c(F)c2F)cc(C(=O)N[C@H]2CCCC[C@@H]2O)c2[nH]cnc12 [Example 36, N-(cis-1S,2S-2-Hydroxycyclohexyl)-7-methyl-6-[2,3-difluoro-4-(1-methyl-1H-pyrazol-4-yl)-benzyl]-1H-benzimidazole-4-carboxamide]
13 | 357 |  |  |  |  |  |  |  |  |  | Cc1c(Cc2ccc(-n3cccn3)cc2)cc(C(=O)N[C@H]2CCCC[C@@H]2O)c2nc[nH]c12 [Example 27, N-(cis-1S,2S-2-Hydroxycyclohexyl)-7-methyl-6-(4-pyrazol-1-yl-benzyl)-1H-benzimidazole-4-carboxamide]
14 | 248 |  |  |  |  |  |  |  |  |  | Cc1c(Cc2ccc(-c3cnn(C)c3)cc2)cc(C(=O)N[C@H]2CCCC[C@@H]2O)c2nccn12 [Example 18, N-(cis-1S,2S-2-Hydroxycyclohexyl)-5-methyl-6-[4-(1-methyl-1H-pyrazol-4-yl)-benzyl]-imidazo[1,2-a]pyridine-8-carboxamide]
15 | 178 |  |  |  |  |  |  |  |  |  | Cc1c(Cc2ccc(-n3cccn3)cc2)cc(C(=O)N[C@H]2CCCC[C@@H]2O)c2nccn12 [Example 19, N-(cis-1S,2S-2-Hydroxycyclohexyl)-5-methyl-6-(4-pyrazol-1-yl-benzyl)-imidazo[1,2-a]pyridine-8-carboxamide]
